The text below walks through data of patent publication US11491157B2, “Cycloalkyl substituted pyrazolopyrimidines having activity against RSV” (priority 2018, dated 2022).

Structures can show the parent of a compound that is named as a salt.

In one data set the test system is rgRSV224 virus. Nature of the data set: Antiviral activity: rgRSV224 (GFP) replication in HeLa cells. Conditions: human respiratory syncytial virus, 72 h, read-out: RSV HELA EC50.
A short description of another data set: in vitro. Particulars: human.

For orientation: melting point means the temperature, or range, at which the solid turns liquid. For orientation: EC50 means the concentration needed to bring the measured effect to its halfway point.

Experimental for in vitro: (§1) Black 384-well clear-bottom microtiter plates (Corning, Amsterdam, The Netherlands) were filled via acoustic drop ejection using the echo liquid handler (Labcyte, Sunnyvale, Calif.). 200 nL of compound stock solutions (100% DMSO) were transferred to the assay plates. 9 serial 4-fold dilutions of compound were made, creating per quadrant the same compound concentration. The assay was initiated by adding 10 μL of culture medium to each well (RPMI medium without phenol red, 10% FBS-heat inactivated, 0.04% gentamycin (50 mg/mL). All addition steps are done by using a multidrop dispenser (Thermo Scientific, Erembodegem, Belgium). Next, rgRSV224 virus (MOI=1) diluted in culture medium was added to the plates. rgRSV224 virus is an engineered virus that includes an additional GFP gene (Hallak L K, Spillmann D, Collins P L, Peeples M E. Glycosaminoglycan sulfation requirements for respiratory syncytial virus infection; Journal of virology (2000), 74(22), 10508-13) and was in-licensed from the NIH (Bethesda, Md., USA). Finally, 20 μL of a HeLa cell suspension (3,000 cells/well) were plated. Medium, virus- and mock-infected controls were included in each test. The wells contain 0.05% DMSO per volume. Cells were incubated at 37° C. in a 5% CO2 atmosphere. Three days post-virus exposure, viral replication was quantified by measuring GFP expression in the cells by an in house developed MSM laser microscope (Tibotec, Beerse, Belgium). The EC50 was defined as the 50% inhibitory concentration for GFP expression. In parallel, compounds were incubated for three days in a set of white 384-well microtiter plates (Corning) and the cytotoxicity of compounds in HeLa cells was determined by measuring the ATP content of the cells using the ATPlite kit (Perkin Elmer, Zaventem, Belgium) according to the manufacturer's instructions. The CC50 was defined as the 50% concentration for cytotoxicity.
Experimental for rgRSV224 virus: as §1

On to `C[C@@H]1c2cc(F)sc2CCN1C(=O)c1cc(C2CC2)n2nc(-c3ccc([C@H]4C[C@@H]4C(N)=O)cc3F)cc2n1` (relative stereo) [Compound 11, (1S,2S)-2-(4-{7-Cyclopropyl-5-[(4*R)-2-fluoro-4-methyl-4,5,6,7-tetrahydro-thieno[3,2-c]pyridine-5-carbonyl]pyrazolo[1,5-a]pyrimidin-2-yl}-3-fluorophenyl)cyclopropane-1-carboxamide], for which the melting point turned out to be 300.14 °C. Further, the EC50 in the data set on rgRSV224 virus came out at 44 nM.

For the molecule `C[C@@H]1c2ccccc2CCN1C(=O)c1cc(-c2ccccc2)n2nc(-c3ccc([C@@H]4C[C@H]4C(=O)NS(C)(=O)=O)cc3F)cc2n1` (single isomer, unassigned) (as salt: salt) [Compound 32, (1*R,2*R)-2-(3-Fluoro-4-{5-[(1R)-1-methyl-1,2,3,4-tetrahydroisoquinoline-2-carbonyl]-7-phenylpyrazolo[1,5-a]pyrimidin-2-yl}phenyl)-N-methanesulfonyl-cyclopropane-1-carboxamide; propan-2-amine salt], the melting point was determined as 186.79 °C.

In turn, `C[C@@H]1c2ccsc2CCN1C(=O)c1cc(C2CC2)n2nc(-c3ccc([C@H]4C[C@@H]4C(N)=O)cc3F)cc2n1` (single isomer, unassigned) [Compound 10, (1S,2S)-2-(4-{7-Cyclopropyl-5-[(4*R)-4-methyl-4,5,6,7-tetrahydro-thieno[3,2-c]pyridine-5-carbonyl]pyrazolo[1,5-a]pyrimidin-2-yl}-3-fluorophenyl)cyclopropane-1-carboxamide] yielded a melting point of 302.9 °C. In the data set “in vitro”, this molecule displayed a CC50 at 3 days of over 25000 nM. Further, the EC50 in the data set with rgRSV224 virus worked out at 14 nM.

`C[C@@H]1c2ccsc2CCN1C(=O)c1cc(C2CC2)n2nc(-c3ccc([C@H]4C[C@@H]4C(=O)NS(C)(=O)=O)cc3F)cc2n1` (single isomer, unassigned) [Compound 28, (1S,2S)-2-(4-{7-Cyclopropyl-5-[(4*R)-4-methyl-4,5,6,7-tetrahydro-thieno[3,2-c]pyridine-5-carbonyl]pyrazolo[1,5-a]pyrimidin-2-yl}-3-fluorophenyl)-N-methanesulfonyl-cyclopropane-1-carboxamide] returned a melting point of 286.12 °C. In addition, in the data set “in vitro”, the CC50 at 3 days stood at 53400 nM. In addition, the EC50 in the data set with rgRSV224 virus was 37 nM.

`C[C@@H]1c2ccccc2CCN1C(=O)c1cc(C2CC2)n2nc(-c3ccc([C@H]4C[C@@H]4c4nnn[nH]4)cc3F)cc2n1` [Compound 4, (1R)-2-(7-Cyclopropyl-2-{2-fluoro-4-[(1S,2S)-2-(1H-1,2,3,4-tetrazol-5-yl)cyclopropyl]phenyl}pyrazolo[1,5-a]pyrimidine-5-carbonyl)-1-methyl-1,2,3,4-tetrahydroisoquinoline] came in with a melting point of 254.07 °C. In “in vitro”, this molecule yielded a CC50 at 3 days of 44000 nM. The EC50 in the data set on rgRSV224 virus is 120 nM.

Take `C[C@@H]1c2ccccc2CCN1C(=O)c1cc(C2CC2)n2nc(-c3ccc([C@H]4C[C@@H]4C(N)=O)cc3F)cc2n1` [Compound 7, (1S,2S)-2-(4-{7-Cyclopropyl-5-[(1R)-1-methyl-1,2,3,4-tetrahydroisoquinoline-2-carbonyl]pyrazolo[1,5-a]pyrimidin-2-yl}-3-fluorophenyl)cyclopropane-1-carboxamide]: the melting point is 280.69 °C. Further, the CC50 at 3 days in “in vitro” is over 100000 nM. Also, the EC50 in the data set on rgRSV224 virus was 30 nM.

With `CNC(=O)[C@H]1C[C@@H]1c1ccc(-c2cc3nc(C(=O)N4CCc5ccccc5[C@H]4C)cc(C4CC4)n3n2)c(F)c1` [Compound 12, (1S,2S)-2-(4-{7-Cyclopropyl-5-[(1R)-1-methyl-1,2,3,4-tetrahydroisoquinoline-2-carbonyl]pyrazolo[1,5-a]pyrimidin-2-yl}-3-fluorophenyl)-N-methylcyclopropane-1-carboxamide], the melting point was found to be 258.18 °C. This molecule also displayed a CC50 at 3 days in the data set “in vitro” of over 100000 nM. Besides, the EC50 in the data set on rgRSV224 virus is 24 nM.

In turn, `C[C@@H]1c2ccccc2CCN1C(=O)c1cc(C2CC2)n2nc(-c3ccc([C@H]4C[C@@H]4C(=O)NCCO)cc3F)cc2n1` [Compound 21, (1S,2S)-2-(4-{7-Cyclopropyl-5-[(1R)-1-methyl-1,2,3,4-tetrahydroisoquinoline-2-carbonyl]-pyrazolo[1,5-a]pyrimidin-2-yl}-3-fluorophenyl)-N-(2-hydroxyethyl)-cyclopropane-1-carboxamide] came in with a CC50 at 3 days in “in vitro” of over 100000 nM. For the same molecule, in the data set with rgRSV224 virus, the EC50 was found to be 62 nM.

In turn, `C[C@@H]1c2ccccc2CCN1C(=O)c1cc(C2CC2)n2nc(-c3ccc([C@H]4C[C@@H]4C(=O)N(C)C)cc3F)cc2n1` [Compound 22, (1S,2S)-2-(4-{7-Cyclopropyl-5-[(1R)-1-methyl-1,2,3,4-tetrahydroisoquinoline-2-carbonyl]-pyrazolo[1,5-a]pyrimidin-2-yl}-3-fluorophenyl)-N,N-dimethylcyclopropane-1-carboxamide] returned a CC50 at 3 days in “in vitro” of 51800 nM. Besides, the EC50 in the data set with rgRSV224 virus was 427 nM.

Turning to `C[C@@H]1c2ccccc2CCN1C(=O)c1cc(C2CC2)n2nc(-c3ccc([C@H]4C[C@@H]4C(=O)N4CCCC4)cc3F)cc2n1` [Compound 23, (1R)-2-(7-Cyclopropyl-2-{2-fluoro-4-[(1S,2S)-2-(pyrrolidine-1-carbonyl)cyclopropyl]-phenyl}pyrazolo[1,5-a]pyrimidine-5-carbonyl)-1-methyl-1,2,3,4-tetrahydroisoquinoline], the CC50 at 3 days in the data set “in vitro” came to 16900 nM. Also, the EC50 with rgRSV224 virus came out at 427 nM.

In “in vitro”, `C[C@@H]1c2ccccc2CCN1C(=O)c1cc(C2CC2)n2nc(-c3ccc([C@H]4C[C@@H]4C(=O)NS(=O)(=O)C(F)(F)F)cc3F)cc2n1` [Compound 29, (1S,2S)-2-(4-{7-Cyclopropyl-5-[(1R)-1-methyl-1,2,3,4-tetrahydroisoquinoline-2-carbonyl]pyrazolo[1,5-a]pyrimidin-2-yl}-3-fluorophenyl)-N-trifluoromethane-sulfonylcyclopropane-1-carboxamide amine salt] showed a CC50 at 3 days of over 100000 nM. Besides, the half-maximal effective concentration (EC50) in the data set with rgRSV224 virus worked out at 2360 nM.

Turning to `COC(=O)N[C@H]1C[C@@H]1c1ccc(-c2cc3nc(C(=O)N4CCc5ccccc5[C@H]4C)cc(C4CC4)n3n2)c(F)c1` [Compound 33, Methyl N-[(1S,2R)-2-(4-{7-cyclopropyl-5-[(1R)-1-methyl-1,2,3,4-tetrahydroisoquinoline-2-carbonyl]pyrazolo[1,5-a]pyrimidin-2-yl}-3-fluorophenyl)cyclopropyl]carbamate], the CC50 at 3 days in the data set “in vitro” was over 100000 nM. Further, the EC50 in the data set with rgRSV224 virus was 155 nM.

`C[C@@H]1c2ccccc2CCN1C(=O)c1cc(C2CC2)n2nc(-c3ccc([C@H]4C[C@@H]4NC(=O)C4CC4)cc3F)cc2n1` [Compound 35, N-[(1S,2R)-2-(4-{7-Cyclopropyl-5-[(1R)-1-methyl-1,2,3,4-tetrahydroisoquinoline-2-carbonyl]pyrazolo[1,5-a]pyrimidin-2-yl}-3-fluorophenyl)cyclopropyl]cyclopropane-carboxamide] yielded a CC50 at 3 days in the data set “in vitro” of over 100000 nM. The EC50 with rgRSV224 virus was determined as 57 nM.

As to `C[C@@H]1c2ccccc2CCN1C(=O)c1cc(C2CC2)n2nc(-c3ccc([C@H]4C[C@@H]4NS(C)(=O)=O)cc3F)cc2n1` [Compound 36, N-[(1S,2R)-2-(4-{7-Cyclopropyl-5-[(1R)-1-methyl-1,2,3,4-tetrahydroisoquinoline-2-carbonyl]pyrazolo[1,5-a]pyrimidin-2-yl}-3-fluorophenyl)cyclopropyl]methanesulfonamide], the CC50 at 3 days in “in vitro” was over 100000 nM. The EC50 with rgRSV224 virus stood at 110 nM.

As for `C[C@@H]1c2ccccc2CCN1C(=O)c1cc(C2CC2)n2nc(-c3ccc([C@H]4C[C@@H]4O)cc3F)cc2n1` [Compound 38, (1S,2R)-2-(4-{7-Cyclopropyl-5-[(1R)-1-methyl-1,2,3,4-tetrahydroisoquinoline-2-carbonyl]pyrazolo[1,5-a]pyrimidin-2-yl}-3-fluorophenyl)cyclopropan-1-ol], the CC50 at 3 days in “in vitro” stood at 50400 nM. For the same molecule, in the data set with rgRSV224 virus, the EC50 stood at 159 nM.

In “in vitro”, `C[C@@H]1c2ccccc2CCN1C(=O)c1cc(C2CC2)n2nc(-c3ccc([C@H]4C[C@H](CO)C4)cc3F)cc2n1` [Compound 41, [trans-3-(4-{7-Cyclopropyl-5-[(1R)-1-methyl-1,2,3,4-tetrahydroisoquinoline-2-carbonyl]pyrazolo[1,5-a]pyrimidin-2-yl}-3-fluorophenyl)cyclobutyl]methanol] had a CC50 at 3 days of 49800 nM. Further, the EC50 in the data set with rgRSV224 virus was determined as 152 nM.

With `C[C@@H]1c2ccccc2CCN1C(=O)c1cc(C2CC2)n2nc(-c3ccc([C@H]4C[C@H](COC(N)=O)C4)cc3F)cc2n1` [Compound 43, [trans-3-(4-{7-Cyclopropyl-5-[(1R)-1-methyl-1,2,3,4-tetrahydroisoquinoline-2-carbonyl]pyrazolo[1,5-a]pyrimidin-2-yl}-3-fluorophenyl)cyclobutyl]methyl carbamate], the CC50 at 3 days in the data set “in vitro” was over 100000 nM. In addition, the half-maximal effective concentration (EC50) in the data set with rgRSV224 virus is 307 nM.

In “in vitro”, `C[C@@H]1c2ccccc2CCN1C(=O)c1cc(C2CC2)n2nc(-c3ccc([C@H]4C[C@H](CC(N)=O)C4)cc3F)cc2n1` [Compound 45, 2-[trans-3-(4-{7-Cyclopropyl-5-[(1R)-1-methyl-1,2,3,4-tetrahydroisoquinoline-2-carbonyl]pyrazolo[1,5-a]pyrimidin-2-yl}-3-fluorophenyl)cyclobutyl]acetamide] had a CC50 at 3 days of 29500 nM. The EC50 with rgRSV224 virus was found to be 146 nM.

Consider `C[C@@H]1c2ccccc2CCN1C(=O)c1cc(C2CC2)n2nc(-c3ccc([C@H]4C[C@@H](CC(N)=O)C4)cc3F)cc2n1` [Compound 46, 2-[cis-3-(4-{7-Cyclopropyl-5-[(1R)-1-methyl-1,2,3,4-tetrahydroisoquinoline-2-carbonyl]pyrazolo[1,5-a]pyrimidin-2-yl}-3-fluorophenyl)cyclobutyl]acetamide], for which the CC50 at 3 days in the data set “in vitro” worked out at 30400 nM. In the data set with rgRSV224 virus, the EC50 stood at 145 nM.

The molecule `CNC(=O)C[C@H]1C[C@H](c2ccc(-c3cc4nc(C(=O)N5CCc6ccccc6[C@H]5C)cc(C5CC5)n4n3)c(F)c2)C1` [Compound 47, N-methyl-2-[trans-3-(4-{7-cyclopropyl-5-[(1R)-1-methyl-1,2,3,4-tetrahydroisoquinoline-2-carbonyl]pyrazolo[1,5-a]pyrimidin-2-yl}-3-fluorophenyl)cyclobutyl]acetamide] gave a CC50 at 3 days in the data set “in vitro” of 25800 nM. Besides, the 50% effective concentration (EC50) in the data set with rgRSV224 virus worked out at 148 nM.
